Test results from paper PMC5138414, “Structural Basis for Redox Regulation of Cytoplasmic and Chloroplastic Triosephosphate Isomerases from Arabidopsis thaliana” (Frontiers in Plant Science, 2016).
pIC50: −log10 of the molar value.

Experiments:
Assay in all cases: residual activity after MMTS incubation, coupled assay at […] nm
Type in all cases: biochemical
cTPI [1] = target: T1, cTPI (Arabidopsis thaliana, UniProt P48491, C13S)
T1 construct: gene CTIMC; homodimer

cTPI [2] = target: T2, cTPI (Arabidopsis thaliana, UniProt P48491); conditions: covalent (C13, C218); 3 h incubation at room temperature, 0.184 nM enzyme, TEA pH 7.4, 10 mM EDTA
T2 construct: gene CTIMC; homodimer

pdTPI [3] = target: T3, pdTPI (Arabidopsis thaliana, UniProt Q9SKP6); conditions: covalent (cysteine); 3 h incubation at room temperature, 0.184 nM enzyme, TEA pH 7.4, 10 mM EDTA; MMTS 0-50 µM
T3 construct: gene TIM; homodimer
Target sequence in this assay (Q9SKP6 60-315 C148S): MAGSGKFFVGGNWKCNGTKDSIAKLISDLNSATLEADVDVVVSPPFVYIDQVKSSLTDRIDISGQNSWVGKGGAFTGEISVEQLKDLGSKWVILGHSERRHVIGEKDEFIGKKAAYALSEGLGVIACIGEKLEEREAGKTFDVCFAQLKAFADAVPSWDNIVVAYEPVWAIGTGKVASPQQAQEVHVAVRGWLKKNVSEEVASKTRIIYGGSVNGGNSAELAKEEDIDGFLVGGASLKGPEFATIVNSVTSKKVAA

pdTPI [4] = target: T3, pdTPI; conditions: read-out: 50% of enzymatic activity
Target sequence in this assay (Q9SKP6 60-315): as the sequence (Q9SKP6 60-315 C148S) above, with S89C counted along it

cTPI [5] = target: T4, cTPI (Arabidopsis thaliana, UniProt P48491, C218S); conditions: read-out: MMTS concentration necessary to inhibit 50%
T4 construct: gene CTIMC; homodimer
T4 sequence (P48491 1-254 C218S): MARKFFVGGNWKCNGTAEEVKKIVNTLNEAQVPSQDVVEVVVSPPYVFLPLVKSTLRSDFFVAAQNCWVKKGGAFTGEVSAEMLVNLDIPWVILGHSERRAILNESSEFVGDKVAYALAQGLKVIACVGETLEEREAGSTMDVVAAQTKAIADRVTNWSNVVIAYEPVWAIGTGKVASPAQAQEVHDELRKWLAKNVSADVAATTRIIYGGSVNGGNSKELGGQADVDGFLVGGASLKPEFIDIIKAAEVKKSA

T2 sequence (P48491 whole entry): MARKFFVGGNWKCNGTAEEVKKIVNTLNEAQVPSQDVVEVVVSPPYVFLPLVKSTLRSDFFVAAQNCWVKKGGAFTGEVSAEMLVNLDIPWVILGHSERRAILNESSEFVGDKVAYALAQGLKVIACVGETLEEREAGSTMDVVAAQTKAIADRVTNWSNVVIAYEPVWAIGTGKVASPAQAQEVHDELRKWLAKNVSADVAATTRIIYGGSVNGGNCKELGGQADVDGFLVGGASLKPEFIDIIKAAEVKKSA
T1 sequence (P48491 whole entry C13S): as the sequence (P48491 whole entry) above, with C13S counted along it

**Q.** Which remaining activity at 0.125 µM (cTPI [1]) does the source give for CSS(C)(=O)=O [MMTS] here?
**A.** 70%

**Q.** What about the “% decrease of activity at 31.25 nM” value (cTPI [2]) of the same compound?
**A.** 90%

**Q.** What about the “% activity remaining (dose curve)” value (pdTPI [3]) of the same compound?
**A.** Mutation pdTPI-C89S is more susceptible to MMTS inhibition

**Q.** And the pIC50 (pdTPI [4])?
**A.** < 5.00

**Q.** And the pIC50 (cTPI [5])?
**A.** 6.90
